Test results taken from patent US20190359939A1, “NEW USE” (DIAMYD MEDICAL AB, priority 2015, published 2019).
“Also recorded” adds a separate entry of the source.

Key:
[1] = test system: CD11c+ DCs (IL-12 production); assay: Intracellular IL-12 expression of treated dendritic cells by FACS; type: cell-based, NOD mouse; settings: with alhydrogel adsorbed rhGAD65, activated with MPLA, FIG. 2B
Text: FIG. 2: IL-12 production of treated dendritic cells. A: FACS plots showing the intracellular IL-12 expression of CD11c+ monocytes as percent IL-12+ cells of parent population; from left to right, untreated (iDCs), matured by MPLA (mDCs), tolerogenic by Dex and VD3 and tolerogenic by GABA. B: Column diagram of percent of parent numbers of the same groups.
In FIG. 2A, FACS plots of the intracellular expression of IL-12 of untreated CD11c+ DCs (iDCs), proinflammatory matured DCs (mDCs), DCs treated with Dex, VD3 and alhydrogel adsorbed rhGAD65 activated by MPLA, and DCs treated with GABA and alhydrogel adsorbed rhGAD65 activated by MPLA are shown. IL-12 is a proinflammatory cytokine, and low production is indicative of tolerogenic DCs. The IL-12+ cells are shown in the upper left quadrant of the plots.
Tolerogenically treated cells on the other hand generally have very low expression of IL-12. Both cells treated with Dex and VD3 and those treated with GABA, even though they have been activated with MPLA, show very low numbers of IL-12+ cells.
Mouse bone marrow-derived dendritic cells (BMDCs) were generated from bone marrow cells (femura) of 8-week-old NOD mouse females in complete RPMI 1640 medium (Lonza, Basel Switzerland) in the presence of GM-CSF (20 ng/ml) and IL-4 (4.5 ng/ml, PeproTech) for 6 days. […]

[2] = test system: DCs from murine bone marrow (CD11c+ monocytes); assay: Dendritic cell surface receptor expression (CD40, CD80, CD86, MHC Class II) by flow cytometry after cultivation with additives; type: cell-based, NOD mouse
Text: FIG. 1: Dendritic cell (CD11c+ monocytes) surface receptor expression after cultivation with various additives. Expression as indicated by the MFI of CD11+ monocyte cells stained with fluorescent antibodies towards CD40, CD80, CD86 and MHC Class II. A: comparing cells untreated (iDCs), matured with MPLA (mDCs), and cells treated with GABA, GABA and rhGAD65, and GABA and rhGAD65 matured with MPLA. B: comparing cells untreated (iDCs), matured with MPLA (mDCs), and cells treated with GABA, GABA and alhydrogel adsobed rhGAD65, and GABA and alhydrogel adsorbed rhGAD65 matured with MPLA. C: comparing cells untreated (iDCs), matured with MPLA (mDCs), and cells treated with GABA and rhGAD65 matured with MPLA, GABA and alhydrogel adsorbed rhGAD65 matured with MPLA, and cells treated with Dex and VD3 and matured with MPLA.
FIG. 1 (A, B and C) show the surface expression pattern of CD80, CD86, CD40 and MCH Class II proteins on murine DCs treated according to different protocols.
Mouse bone marrow-derived dendritic cells (BMDCs) were generated from bone marrow cells (femura) of 8-week-old NOD mouse females in complete RPMI 1640 medium (Lonza, Basel Switzerland) in the presence of GM-CSF (20 ng/ml) and IL-4 (4.5 ng/ml, PeproTech) for 6 days. Fresh medium was added on day 3 and comparator tDCs were induced by adding dexamethasone (1 μM) and vitamin D3 (0.5 ng/ml) on day 6, while mDCs were generated without tolerogenic factors, and iDCs were untreated for the entire cultivation period. Similarly for GABA testing, GABA was added on day 6 in at a concentration of 100 μM. Exposure to antigen was achieved by adding GAD65 (either pure GAD65 protein or alum adsorbed GAD65) to the cultivation mixture on day 6 along with tolerizing agents at a concentration of 5 μg/ml. […] Cells were harvested on day 8.
Mouse DCs were characterized by flowcytometry using following mAbs purchased from eBioscience; anti-CD11c-APC (clone N418), anti-CD40-PerCP-eFluor710 (clone 1C10), anti-CD80-FITC (clone 16-10A1), anti-CD86-PE (clone GL1), and anti-MHC II (I-A/I-E) (clone MS/114.15.2). Cells were stained with fluorochrome-conjugated antibodies against surface molecules and data were acquired by LSR II flow cytometers (BD Biosciences) and analyzed using FlowJo software (Tree Star).

[3] = test system: dendritic cells obtained from mouse bone marrow; settings: compared to LPS or mouse serum albumin treatment
Protocol: Dendritic cells obtained from mouse bone marrow are used. In order to secure a large amount of the number of the dendritic cells, Inaba's culture method (Inaba et al., J. Exp. Med. 175:1157, 1992), which is a representative method of culturing a dendritic cell, is modified and applied to the dendritic cells. […] A tibia and a femur of a mouse aged 6 to 11 weeks are extracted, and a RPMI1640 medium is added to bone marrow of the tibia and the femur to obtain bone marrow cells therefrom. Then, hypotonic ammonium chloride-potassium (ACK) lysing buffer is used for the lysis of red blood cells. The bone marrow cells are cultured in an RPMI1640 medium containing about 10 to 20 ng/ml recombinant mouse GMCSF, about 5 to 10 ng/ml recombinant mouse IL4, 5 to 10% heat inactivated fetal bovine serum, L-glutamine, 25 mM of HEPES, penicillin, and streptomycin under conditions of 5% CO2 and a temperature of 37° C., thereby inducing differentiation into dendritic cells. The medium is replaced every 2 days with a medium containing the recombinant cytokines. After 2 and 4 days of the culture, granulocytes and lymphocytes that are floating on the culture dish are removed. After 6 days of the culture, dendritic cells that are differentiated from precursor cells attached on the bottom of the culture dish and that have characteristic protrusions in suspension are used in the experiments. […]

Structure (SMILES): NCCCC(=O)O [GABA, gamma-aminobutyric acid]
- numbers of IL-12+ cells (percentage of CD11c+ monocytes that are IL-12 positive) [1]: very low
- surface protein expression profile (CD80, CD86, CD40, MHC Class II) ([2]; 100 μM GABA alone, FIG. 1A): more similar to iDCs and indicative of tDCs
- tolerogenic expression pattern compared to Dexamethasone, Vitamin D and MPLA protocol ([2]; 100 μM GABA and stabilization with MPLA, FIG. 1C): comparable or better
- surface molecule expression ([2]; GABA plus alhydrogel adsorbed rhGAD65, then MPLA, FIG. 1B): keep a low surface molecule expression
- surface protein expression profile (CD80, CD86, CD40, MHC Class II) ([2]; GABA plus antigen GAD65 (rhGAD65), no MPLA): remains the same; also recorded: remains indicative of tDCs
- surface protein expression profile (CD80, CD86, CD40, MHC Class II) ([2]; GABA plus rhGAD65, then MPLA): increases slightly but is still much lower than mDCs; also recorded: still remains almost the same
- CD80 expression compared to Dex and VD3 treated cells ([2]; activated by MPLA, FIG. 1C): even lower
- amount of maturation markers on the surface of the dendritic cells (CD40, CD80, CD86, MHC class II) [3]: decreased
